Here are results for one compound from paper PMC5570892, “Indole-based perenosins as highly potent HCl transporters and potential anti-cancer agents” (Scientific Reports, 2017).

The data set in a line: Stability in vesicles by UV-Vis. Format: physicochemical. As to conditions: POPC lipid solution, 2 hours. As to the method: The spectra obtained over the course of 72 hours for 1d, 2 and 4-8 show similar trends, 3 was not tested because it was unavailable. All spectra show a decrease in the peak at around 400 nm after 6 hours and an increase in the peak at around 300 nm after 72 hours. These changes in spectra […]
72 hours. The absorbance for 6 decreases dramatically for the readings after 6 hours because most […]
S7.2 Stability in Vesicles
Stability studies were performed for the perenosins in vesicles using UV-Vis spectroscopy to probe the lifetime of compounds 1d and 2-8 at pH 7.2 and pH 4.6. Unilamellar vesicles were prepared using previously reported literature procedures7-9. A lipid film of POPC (1-palmitoyl-2-oleoyl-sn-glycero-3-phosphocholine) was prepared from a chloroform solution under reduced pressure and then dried under vacuum for 4 or more hours. The lipid film was rehydrated by vortexing with a solution of phosphate buffered (5 mM) sodium chloride (500 mM). The lipid suspension was then subjected to 9 freeze-thaw cycles and left to rest at room temperature for 30 minutes. After this, the suspension was extruded 25 times through a 400 nm polycarbonate membrane resulting in unilamellar vesicles of a mean diameter of 400 nm. […]
Figure S65. Absorbance spectra taken over 2 hours of 1d (25 mM) in a sodium chloride (500 mM) phosphate buffered (5 mM) lipid solution. a) pH 7.2 b) pH 4.6 […]

With `CCCCCc1cc(/N=C/c2[nH]c(C)cc2C)c2[nH]ccc2c1` [Perenosin 1d], the “stability in vesicles at pH 7.2” value is “stable”.
